Results published in patent publication US20160250190A1, “N-METHYL PYRAZOLOANTHRONE FOR TREATMENT OF CANCER” (THE GENERAL HOSPITAL CORPORATION, priority 2013, published 2016).
“Also recorded” adds a separate entry of the source.

Experiments:
OVCAR5 cells [1] = experiment: MTT assay in OVCAR5 cells; format: cell-based, human; conditions: for dose of single agent giving virtually complete cell death (95% cell death): 72 h, agent alone; for IC50: Homo sapiens, OVCAR-5, 72 h
Description: (§1) Drug responses were evaluated in the well-established OVCAR5 cancer cell line and a variety of primary ovarian cancer cells lines derived from patient ascites ([…], PKD1, PKD2).

[2] = system: ptD primary ovarian cancer cells; experiment: MTT assay in ptD cells; format: cell-based, human; conditions: for dose of single agent giving virtually complete cell death (95% cell death) / IC50: ptD, 72 h; for dose of single agent giving virtually complete cell death (95% cell death): agent alone; for IC50: Homo sapiens
Description: Drug responses were evaluated in the well-established OVCAR5 cancer cell line and a variety of primary ovarian cancer cells lines derived from patient ascites (ptD, ptH, ptG, PKD1, PKD2).

[3] = system: c-JUN phosphorylation (canonical downstream target of JNKs); experiment: western blot of c-JUN phosphorylation in ptD cells; format: cell-based, human; conditions: 25 uM, 30 min
MISR2 (MISRII) = biological target: T1, MISR2 (MISRII) (Rattus norvegicus, UniProt Q62893); experiment: rat fetal urogenital ridge (UGR) assay; conditions: UGR culture, 72 h
T1 construct: UGR tissue is dissected from 14.5d female fetal rats and cultured ex-vivo; from tissue; host or cells: fetal rat urogenital ridge (14.5d female), organ culture
T1 sequence (Q62893 18-557): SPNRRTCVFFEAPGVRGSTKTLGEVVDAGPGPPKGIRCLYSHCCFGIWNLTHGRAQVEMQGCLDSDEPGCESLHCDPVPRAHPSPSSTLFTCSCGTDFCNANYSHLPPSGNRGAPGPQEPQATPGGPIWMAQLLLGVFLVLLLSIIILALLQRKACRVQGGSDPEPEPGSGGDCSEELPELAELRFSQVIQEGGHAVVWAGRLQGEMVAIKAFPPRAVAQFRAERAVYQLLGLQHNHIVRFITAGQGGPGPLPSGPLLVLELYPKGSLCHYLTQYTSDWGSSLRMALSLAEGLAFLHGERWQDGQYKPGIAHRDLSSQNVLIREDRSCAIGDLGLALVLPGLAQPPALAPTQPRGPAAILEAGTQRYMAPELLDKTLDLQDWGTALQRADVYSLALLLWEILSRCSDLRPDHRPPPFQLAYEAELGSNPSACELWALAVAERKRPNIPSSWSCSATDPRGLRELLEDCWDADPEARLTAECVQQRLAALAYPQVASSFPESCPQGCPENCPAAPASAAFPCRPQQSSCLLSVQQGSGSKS
Description: UGR tissue is dissected from 14.5d female fetal rats and cultured ex-vivo on a semi solid substrate (agarose droplet on a metal grid) suspended over media at the air/media interface. The UGR from each female is cultured for 72 h in presence of the drugs while the contralateral ridge is cultured in vehicle (DMSO) as a control. The regression of the Mullerian duct, which is specific to MIS activity, is measured in sections of UGR after fixing and embedding.

300 kinases = conditions: 0.5 μM inhibitor, 10 uM ATP; cited from earlier work
CDKi P21 = experiment: qPCR expression of CDKi P21 in ptD cells; format: cell-based, human; conditions: 25 μM, 2-48 h
Excerpt: (§2) To decipher the mechanism of cell cycle block observed by treatment with M-SP600, the inventors next assessed the expression of the kinases CDKi P15 and P21 by qPCR, since these kinases control G1/S transition.

JNKs = conditions: Bennet et al. 2001; cited from earlier work
[4] = system: PtD cells xenografted in the flank of nude mice; experiment: PtD xenograft in nude mice; format: in vivo; conditions: 30 mg/kg/day for 3 consecutive days
OVCAR5 cells [5] = experiment: cell cycle distribution by PI staining and flow cytometry in OVCAR5 cells; format: cell-based, human; conditions: OVCAR5 synchronized by serum deprivation 24 h, 25 uM with 10% serum
Excerpt: (§3) This pattern is observed in both cells lines, but is particularly pronounced in OVCAR5 (FIG. 5C).

[6] = system: OVCAR5 cells xenografted in the flank of nude mice; experiment: OVCAR5 xenograft in nude mice; format: in vivo, mouse; conditions: 60 mg/kg/day, 5 days on 2 days off for 3 weeks
Description: A longer experiment was subsequently carried out using OVCAR5 cells xenografted at 1×10^6 in the flank of nude mice, which were treated 72 h later in a 5 days on 2 days off schedule for 3 weeks at a dose of 60 mg/kg/day using 3 groups of 5 mice randomly selected.

CDKi P15 = experiment: qPCR expression of CDKi P15; format: cell-based
Excerpt: as §2

[7] = system: OVCAR5 and primary ovarian cancer cell lines (ptD, ptH, ptG, PKD1, PKD2); experiment: MTT assay in a panel of ovarian cancer cell lines; format: cell-based, human; conditions: 72 h, all cell lines
Description: as §1

ptD cells = experiment: cell cycle distribution by PI staining and flow cytometry in ptD cells; format: cell-based, human
Excerpt: as §3

Structure (SMILES): COc1cccc2c1C(=O)c1c(O)c3c(c(O)c1C2=O)C[C@@](O)(C(=O)CO)C[C@@H]3O[C@H]1C[C@H](N)[C@H](O)[C@H](C)O1 [DOX, doxorubicin, reference compound]
- dose of single agent giving virtually complete cell death (95% cell death) (OVCAR5 cells [1]): 300 µM
- dose of single agent giving virtually complete cell death (95% cell death) [2]: greater than 300 μM

Structure (SMILES): CCOc1nc(NC(=O)Cc2cc(OC)ccc2OC)cc(N)c1C#N [JNK inhibitor VIII, reference compound]
- c-JUN phosphorylation [3]: inhibited

Structure (SMILES): Cn1nc2c3c(cccc31)C(=O)c1ccccc1-2 [M-SP600, N1-methyl-1,9-pyrazolothrone]
- size of Wolffian ducts (MISR2 (MISRII)): smaller Wolffian ducts
- number of kinases inhibited at more than 50% (300 kinases): 4
- expression of P21 by qPCR (CDKi P21): induce P21; also recorded: greater for the M-SP600 than the SP600
- inhibition of JNKs (JNKs): does not inhibit JNKs
- tolerability [4]: well tolerated
- tumor growth ([4]; one week after implant): strong trend emerged of inhibition of tumor growth
- dose of single agent giving virtually complete cell death (95% cell death) (OVCAR5 cells [1]): 50 µM
- IC50 (OVCAR5 cells [1]): 12.5 µM
- IC50 [2]: 6.25 µM
- dose of single agent giving virtually complete cell death (95% cell death) [2]: 50 µM
- cell cycle block (OVCAR5 cells [5]): causes a G1 block
- tumor growth ([6]; versus control at day 15): significantly inhibited
- tumor growth ([6]; versus control at day 15, listed as MSP600, 60 mg/kg/day): significantly lower than control
- expression of P15 (CDKi P15): upregulation of P21 and P15
- inhibition of cancer cell growth [7]: inhibited
- cell cycle distribution (ptD cells; asynchronous ptD cells, 25 uM, 24 h): marked reduction in cells in S phase accompanied by an accumulation of cells particularly in G1 and less so in G2; also recorded: more pronounced with M-SP600 than SP600
- cell cycle block (ptD cells; ptD synchronized by serum deprivation 24 h, 25 uM with 10% serum): causes a G1 block

Structure (SMILES): Oc1c2ccccc2c2c3c(cccc13)N=N2 [SP600, 1,9-pyrazoloathrone, reference compound]
- tolerability [4]: well tolerated
- IC50 (OVCAR5 cells [1]): 12.5 µM
- IC50 [2]: 6.25 µM

Structure (SMILES): CCCS(=O)(=O)Nc1ccc(F)c(C(=O)c2c[nH]c3ncc(-c4ccc(Cl)cc4)cc23)c1F [Vemurafinib]
- sensitivity of cells to the drug ([2]; ptD cells with BRAF V600E mutation): exquisitely sensitive
